The text below walks through data of patent publication US8470810B2, “Heterocyclic compounds suitable for treating disorders that respond to modulation of the dopamine D3 receptor” (Abbott GmbH & Co. KG, priority 2004, dated 2013).

In assay [1] the target is T1, human dopamine D2L receptors (long isoform) (Homo sapiens, UniProt P14416).
T1 construct: expressed in transfected cells
The assay can be described thus: Dopamine D2L receptor binding, displacement of [125I] iodospiperone. As to conditions: membranes of HEK-293 cells stably expressing human D2L; 0.01 nM [125I] iodospiperone; 25° C., 60 minutes; read-out: Ki(D2)*. The procedure, abridged: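 Displacement of [125I]iodospiperone from human D2L receptors, triplicates, in 50 mM Tris pH 7.4 with 120 mM NaCl, 5 mM KCl, 2 mM CaCl2, 2 mM MgCl2, 0.1% BSA. Incubated 60 min at 25 °C, then filtered and counted by scintillation. Ki came from iterative nonlinear regression of inhibition curves.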

The target of assay [2] is T2, human dopamine D3 receptors (Homo sapiens, UniProt P35462).
T2 construct: expressed in transfected cells
Briefly: Dopamine D3 receptor binding, displacement of [125I]-iodosulpride. As to conditions: for Ki: membranes of HEK-293 cells stably expressing human D3, 0.1 nM [125I]-iodosulpride, 25° C., 60 minutes; for Ki(D2)*/Ki(D3)*: selectivity ratio of the receptor binding constants D2 over D3. The procedure, abridged: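 Displacement of [125I]-iodosulpride at human D3 receptors in pH 7.4 Tris buffer with NaCl, KCl, CaCl2, MgCl2, 0.1% BSA, 10 μM quinolone and 0.1% ascorbic acid, 60 min at 25 °C, in triplicate. Bound label collected by filtration and counted; Ki from nonlinear regression of inhibition curves.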
For orientation: In a radioligand displacement assay an active substance lowers the binding of a labelled ligand.

T2 sequence (P35462 whole entry): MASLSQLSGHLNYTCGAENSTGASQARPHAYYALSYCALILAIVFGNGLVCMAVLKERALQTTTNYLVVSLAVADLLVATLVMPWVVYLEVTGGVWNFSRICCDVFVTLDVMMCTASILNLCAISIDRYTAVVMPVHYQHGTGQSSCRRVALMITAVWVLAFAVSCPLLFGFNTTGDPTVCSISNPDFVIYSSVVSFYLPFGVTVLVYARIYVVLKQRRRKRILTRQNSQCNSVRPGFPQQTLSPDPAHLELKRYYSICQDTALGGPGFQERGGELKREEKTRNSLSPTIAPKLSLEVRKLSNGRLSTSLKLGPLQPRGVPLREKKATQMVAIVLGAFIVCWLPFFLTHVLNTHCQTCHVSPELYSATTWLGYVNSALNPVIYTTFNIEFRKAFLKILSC
T1 sequence (P14416 whole entry, canonical isoform): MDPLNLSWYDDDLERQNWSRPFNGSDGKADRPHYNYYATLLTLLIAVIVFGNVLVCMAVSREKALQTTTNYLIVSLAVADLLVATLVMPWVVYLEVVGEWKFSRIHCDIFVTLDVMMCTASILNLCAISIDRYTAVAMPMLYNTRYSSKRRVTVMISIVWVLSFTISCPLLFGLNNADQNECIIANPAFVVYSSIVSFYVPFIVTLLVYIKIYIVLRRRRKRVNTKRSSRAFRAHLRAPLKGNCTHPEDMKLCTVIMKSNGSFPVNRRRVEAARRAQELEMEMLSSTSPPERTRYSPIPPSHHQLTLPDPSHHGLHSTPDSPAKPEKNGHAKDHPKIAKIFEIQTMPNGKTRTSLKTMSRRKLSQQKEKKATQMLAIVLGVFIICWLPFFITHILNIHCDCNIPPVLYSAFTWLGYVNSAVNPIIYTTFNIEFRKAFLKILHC

The term Ki denotes a dissociation constant, usually derived from enzyme kinetics or from competition with a known ligand. For the compound `CCCN1CC[C@@H](c2ccc(NS(=O)(=O)c3ccc(-c4cnco4)cc3)cc2)C1` [Example 70, 4-Oxazol-5-yl-N-[4-((S)-1-propyl-pyrrolidin-3-yl)-phenyl]-benzenesulfonamide], the inhibition constant (Ki) in assay [1] is 37.3 nM. For the same compound, in assay [2], the affinity, expressed as Ki, was 0.84 nM and the “Ki(D2)*/Ki(D3)*” value worked out at 44.
Turning to `CCCN1CC[C@@H](c2ccccc2NS(=O)(=O)c2ccc(-c3cnco3)cc2)C1` [Example 71, 4-Oxazol-5-yl-N-[2-((S)-1-propyl-pyrrolidin-3-yl)-phenyl]-benzenesulfonamide], in assay [1], the Ki is 52.3 nM. Further, in assay [2], the affinity, expressed as Ki, was 4.79 nM and the “Ki(D2)*/Ki(D3)*” value stood at 11.
On the same counts, the results for `CCCN1CC[C@@H](c2ccc(NS(=O)(=O)c3ccc(N4CCCC4=O)cc3)cc2)C1` [Example 72, 4-(2-Oxo-pyrrolidin-1-yl)-N-[4-((S)-1-propyl-pyrrolidin-3-yl)-Phenyl]-benzenesulfonamide] are 473 nM, 35.1 nM and 13.
Take `CCCN1CC[C@@H](c2ccc(NS(=O)(=O)c3ccc(-c4ccco4)cc3)cc2)C1` [Example 73, 4-Furan-2-yl-N-[4-((S)-1-propyl-pyrrolidin-3-yl)-phenyl]-benzenesulfonamide]: the results for the inhibitory constant (Ki) in assay [1] and in assay [2] were 6.73 nM and 0.61 nM, respectively.
Turning to `CCCN1CC[C@@H](c2ccc(NS(=O)(=O)c3ccc(N4CCC4)cc3)cc2)C1` [Example 75, 4-Azetidin-1-yl-N-[4-((S)-1-propyl-pyrrolidin-3-yl)-phenyl]-benzenesulfonamide], the inhibitory constant (Ki) in assay [1] worked out at 12.2 nM. In assay [2], the inhibitory constant (Ki) stood at 0.63 nM and the “Ki(D2)*/Ki(D3)*” value is on record as 19.
Take `CCCN1CC[C@@H](c2ccc(NS(=O)(=O)c3ccc(C(C)C(F)F)cc3)cc2)C1` (stereo partly drawn) [Example 77, 4-(2,2-Difluoro-1-methyl-ethyl)-N-[4-((S)-1-propyl-pyrrolidin-3-yl)-phenyl]-benzenesulfonamide]: the Ki in assay [1] came out at 50 nM. In assay [2], the Ki came out at 1.33 nM and the “Ki(D2)*/Ki(D3)*” value was 37.
`CCCN1CC[C@@H](c2ccc(NS(=O)(=O)c3ccc(C(C)C(F)(F)F)cc3)cc2)C1` (stereo partly drawn) [Example 78, N-[4-((S)-1-Propyl-pyrrolidin-3-yl)-phenyl]-4-(2,2,2-trifluoro-1-methyl-ethyl)benzenesulfonamide]: the figures for the Ki in assay [1] and in assay [2] were 41.9 nM and 1.4 nM, respectively. In addition, in assay [2], the “Ki(D2)*/Ki(D3)*” value came out at 30.
On the same counts, the results for `CCCN1CC[C@@H](c2ccc(NS(=O)(=O)c3cc4ccccc4o3)cc2)C1` [Example 79, Benzofuran-2-sulfonic acid [4-((S)-1-propyl-pyrrolidin-3-yl)-phenyl]-amide] are 1110 nM, 13.5 nM and 82.
On to `CCCN1CC[C@@H](c2ccc(NS(=O)(=O)c3ccc(-c4ccno4)s3)cc2)C1` [Example 80, 5-Isoxazol-5-yl-thiophene-2-sulfonic acid [4-((S)-1-propyl-pyrrolidin-3-yl)-phenyl]-amide], for which the inhibition constant (Ki) in assay [1] came to 1100 nM. In addition, in assay [2], the Ki came out at 37.6 nM and the “Ki(D2)*/Ki(D3)*” value was determined as 29.
In the case of `CCCN1CC[C@@H](c2ccc(NS(=O)(=O)c3ccc(-c4ccon4)s3)cc2)C1` [Example 81, 5-Isoxazol-3-yl-thiophene-2-sulfonic acid [4-((S)-1-propyl-pyrrolidin-3-yl)-phenyl]-amide], the inhibitory constant (Ki) in assay [1] came out at 1160 nM; in assay [2] it was 31.3 nM. Also, in assay [2], the “Ki(D2)*/Ki(D3)*” value is given as 37.
In the case of `CCCN1CC[C@@H](c2ccc(NS(=O)(=O)c3ccc(-c4cnco4)s3)cc2)C1` [Example 82, 5-Oxazol-5-yl-thiophene-2-sulfonic acid [4-((S)-1-propyl-pyrrolidin-3-yl)-phenyl]-amide], the Ki in assay [1] was 437 nM. In assay [2], the Ki was found to be 5.59 nM and the “Ki(D2)*/Ki(D3)*” value is recorded as 78.
With `CCN1CC[C@@H](c2ccc(NS(=O)(=O)c3ccc(C(C)C)cc3)cc2)C1` [Example 84, 4-Isopropyl-N-[4-((S)-1-ethyl-pyrrolidin-3-yl)-phenyl]-benzenesulfonamide], the inhibition constant Ki in assay [1] came out at 16.2 nM. In assay [2], affinity was put at a Ki of 0.95 nM and the “Ki(D2)*/Ki(D3)*” value was 17.
On the same counts, the results for `CC(C)c1ccc(S(=O)(=O)Nc2ccc([C@@H]3CCN(C)C3)cc2)cc1` [Example 85, 4-Isopropyl-N-[4-((S)-1-methyl-pyrrolidin-3-yl)-phenyl]-benzenesulfonamide] are 18.5 nM, 0.57 nM and 32.
Consider `CCCN1CC[C@@H](c2ccc(NS(=O)(=O)c3ccc(CCF)cc3)cc2)C1.Cl` [Example 86, 4-(2-Fluoro-ethyl)-N-[4-((S)-1-propyl-pyrrolidin-3-yl)-phenyl]-benzenesulfonamide, hydrochloride], for which the inhibition constant Ki in assay [1] amounted to 119 nM. Further, in assay [2], the affinity, expressed as Ki, was 1.18 nM and the “Ki(D2)*/Ki(D3)*” value came to 101.
On to `CCCN1CC[C@@H](c2ccc(NS(=O)(=O)c3ccc([C@H](C)CF)cc3)cc2)C1` [Example 87, 4-((S)-2-Fluoro-1-methyl-ethyl)-N-[4-((S)-1-propyl-pyrrolidin-3-yl)-phenyl]-benzenesulfonamide], for which, in assay [1], the Ki was 20.5 nM. Further, in assay [2], the Ki came out at 0.55 nM and the “Ki(D2)*/Ki(D3)*” value is listed as 37.
Turning to `CCCN1CC[C@@H](c2ccc(NS(=O)(=O)c3ccc(CCC(F)(F)F)cc3)cc2)C1` [Example 88, N-[4-((S)-1-Propyl-pyrrolidin-3-yl)-phenyl]-4-(3,3,3-trifluoro-Propyl)-benzenesulfonamide], the Ki worked out at 41 nM in assay [1] and 0.92 nM in assay [2]. Further, the “Ki(D2)*/Ki(D3)*” value in assay [2] amounted to 45.
`CCCc1ccc(S(=O)(=O)Nc2ccc([C@@H]3CCN(CCC)C3)cc2)s1` [Example 89, 5-Propyl-thiophene-2-sulfonic acid [4-((S)-1-propyl-pyrrolidin-3-yl)-phenyl]-amide]: in assay [1], the inhibition constant Ki is 27 nM. Further, in assay [2], the inhibition constant (Ki) is 0.6 nM and the “Ki(D2)*/Ki(D3)*” value was 45.
In the case of `C=CCN1CC[C@H](c2ccc(NS(=O)(=O)c3ccc(C4CC4(F)F)cc3)cc2)C1` (stereo partly drawn) [Example 90, N-[4-((R)-1-Allyl-pyrrolidin-3-yl)-phenyl]-4-(2,2-difluoro-cyclopropyl)benzenesulfonamide], the inhibition constant Ki worked out at 280 nM in assay [1] and 11 nM in assay [2]. Besides, in assay [2], the “Ki(D2)*/Ki(D3)*” value is reported as 25.
Consider `CCCN1CC[C@@H](c2ccc(NS(=O)(=O)c3ccc(CCCF)cc3)cc2)C1` [Example 92, 4-(3-Fluoro-propyl)-N-[4-((S)-1-propyl-pyrrolidin-3-yl)-phenyl]-benzenesulfonamide], for which, in assay [1], the inhibitory constant (Ki) was 17.3 nM. In assay [2], the inhibition constant Ki is 0.61 nM and the “Ki(D2)*/Ki(D3)*” value was found to be 28.
`CCCN1CC[C@@H](c2ccc(NS(=O)(=O)c3ccc([C@@H](C)CF)cc3)cc2)C1` [Example 93, 4-((R)-2-Fluoro-1-methyl-ethyl)-N-[4-((S)-1-propyl-pyrrolidin-3-yl)-phenyl]-benzenesulfonamide]: the inhibitory constant (Ki) in assay [1] was determined as 14.7 nM. In addition, in assay [2], the Ki came to 0.48 nM and the “Ki(D2)*/Ki(D3)*” value is listed as 31.
In the same order, the values of `CC(C)c1ccc(S(=O)(=O)Nc2ccc([C@@H]3CCN(CC4CC4)C3)cc2)cc1` [Example 94, N-[4-((S)-1-Cyclopropylmethyl-pyrrolidin-3-yl)-phenyl]-4-isopropyl-benzenesulfonamide] are 4.7 nM, 0.23 nM and 21.
On the same counts, the results for `CCCN1CC[C@@H](c2ccc(NS(=O)(=O)c3ccc(C(CF)CF)cc3)cc2)C1` [Example 95, 4-(2-Fluoro-1-fluoromethyl-ethyl)-N-[4-((S)-1-propyl-pyrrolidin-3-yl)-phenyl]-benzenesulfonamide] are 27.9 nM, 1.3 nM and 22.
With `CC(C)c1ccc(S(=O)(=O)Nc2ccc([C@@H]3CCN(CCF)C3)cc2)cc1` [Example 96, N-{4-[(S)-1-(2-Fluoro-ethyl)-pyrrolidin-3-yl]-phenyl}-4-isopropyl-benzenesulfonamide], the Ki in assay [1] was found to be 57.8 nM; in assay [2] it was 0.83 nM. Also, in assay [2], the “Ki(D2)*/Ki(D3)*” value is reported as 70.
For `C=CCN1CC[C@@H](c2ccc(NS(=O)(=O)c3ccc(OC(F)(F)F)cc3)cc2)C1` [Example 101, N-[4-((S)-1-Allyl-pyrrolidin-3-yl)-phenyl]-4-trifluoromethoxy-benzenesulfonamide], in assay [1], the Ki is 268 nM. In assay [2], the affinity corresponds to a Ki of 3.7 nM and the “Ki(D2)*/Ki(D3)*” value stood at 73.
On to `O=S(=O)(Nc1ccc([C@@H]2CCNC2)cc1)c1ccc(OC(F)(F)F)cc1` [Example 102, N—((S)-4-Pyrrolidin-3-yl-phenyl)-4-trifluoromethoxy-benzenesulfonamide], for which the figures for the inhibition constant Ki in assay [1] and in assay [2] were 2710 nM and 52 nM, respectively. The “Ki(D2)*/Ki(D3)*” value in assay [2] was 52.
Turning to `CCCN1CC[C@@H](c2ccc(NS(=O)(=O)c3ccc(CC(F)(F)F)cc3)cc2)C1` [Example 103, N-[4-((S)-1-Propyl-pyrrolidin-3-yl)-phenyl]-4-(2,2,2-trifluoro-ethyl)benzenesulfonamide], the Ki in assay [1] came to 45 nM; in assay [2], 1.2 nM. In assay [2], the “Ki(D2)*/Ki(D3)*” value is given as 38.
In the case of `CCN1CC[C@@H](c2ccc(NS(=O)(=O)c3ccc(OC(F)(F)F)cc3)cc2)C1` [Example 104, N-[4-((S)-1-Ethyl-pyrrolidin-3-yl)-phenyl]-4-trifluoromethoxy-benzenesulfonamide], the Ki in assay [1] amounted to 352 nM. For the same compound, in assay [2], the inhibitory constant (Ki) was found to be 8.3 nM and the “Ki(D2)*/Ki(D3)*” value is on record as 43.
